{"source": "paper PMC3438169", "about": "(PLoS ONE, 2012)", "key": {"[1]": {"biological_target": "T1, EF-G1 S459F (Pseudomonas aeruginosa, UniProt Q9HWD2, S459F)", "T1 construct": "P. aeroginosa fusA1 encoding full-length EF-G was PCR amplified from pET28a-PaEFG-Nhis; made in house; host or cells: E. coli BL21 (DE3)", "T1 sequence (Q9HWD2 whole entry S459F)": "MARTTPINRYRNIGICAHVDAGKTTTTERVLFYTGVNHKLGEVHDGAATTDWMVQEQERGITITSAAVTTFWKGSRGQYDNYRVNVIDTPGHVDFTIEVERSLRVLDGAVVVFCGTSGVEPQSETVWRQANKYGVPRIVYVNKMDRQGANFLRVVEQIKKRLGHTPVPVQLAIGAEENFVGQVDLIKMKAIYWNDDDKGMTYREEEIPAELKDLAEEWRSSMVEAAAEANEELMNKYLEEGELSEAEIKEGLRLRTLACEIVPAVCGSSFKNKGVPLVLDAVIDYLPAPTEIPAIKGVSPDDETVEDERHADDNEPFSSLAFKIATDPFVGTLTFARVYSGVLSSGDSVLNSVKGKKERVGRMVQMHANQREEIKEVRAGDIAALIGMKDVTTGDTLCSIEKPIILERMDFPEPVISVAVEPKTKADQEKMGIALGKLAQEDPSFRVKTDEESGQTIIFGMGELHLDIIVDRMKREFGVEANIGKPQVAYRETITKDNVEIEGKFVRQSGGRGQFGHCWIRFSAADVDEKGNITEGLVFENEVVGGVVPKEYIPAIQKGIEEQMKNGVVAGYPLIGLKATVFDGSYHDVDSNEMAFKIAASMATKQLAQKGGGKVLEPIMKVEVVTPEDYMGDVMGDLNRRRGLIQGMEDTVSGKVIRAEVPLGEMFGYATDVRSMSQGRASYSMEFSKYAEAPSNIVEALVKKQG", "assay": "Surface plasmon resonance (SPR), EF-G1 S459F", "assay_type": "binding, P. aeruginosa", "conditions": "Biacore, data not shown", "from_the_text": "For wild type P. aeruginosa EF-G1 expression, the fusA gene was amplified from genomic DNA of P. aeruginosa PAO1 K767 using the primer pair EFG-F/EFG-R: […]/[…]. The product was digested with NdeI and HindIII and ligated into similarly digested pET28a to generate pET28a-PaEFG-Nhis. This plasmid was then used for site directed mutagenesis to introduce the nucleotide change encoding EF-G1S459F (pET28a-PaEFGS459F-Nhis). The plasmids were then transformed into an E. coli strain BL21 (DE3) for expression. A single colony was used to inoculate 10 ml LB broth containing 50 µg/ml kanamycin which was incubated at 37°C overnight, with shaking at 250 rpm. The overnight culture was then diluted 100-fold into 1 liter fresh LB broth containing 50 µg/ml kanamycin. After growing at 37°C with vigorous shaking for about 2.5 hours, expression of P. aeruginosa EF-G1 or EF-G1S459F was then induced by adding 0.1 mM IPTG, with further culture incubation at 18°C for 24 hours. Cells were then pelleted by centrifugation at 5,000 rpm with Sorvall SLC-6000 rotor and stored at −20°C. Cell pellets were then resuspended in 20 ml of BugBuster solution (Novagen) and incubated at room temperature for 20 minutes. […] The protein in the fractions was monitored by UV absorbance at 280 nm. […] Protein concentration was determined by Nano-drop spectrophotometer. […]"}, "[2]": {"system": "BYΔ8 strain with MEF1 mutations", "assay": "Yeast susceptibility determination, MEF1 mutants in BYΔ8 background", "assay_type": "cell-based, S. cerevisiae", "conditions": "Figure 2D: all argyrin B concentrations in the range tested", "protocol": "Yeast strains used in this study are BY4741 [32] and strain BYΔ8, derived from BY4741 but deleted for eight genes involved in drug resistance (efflux pumps: snq2, pdr5, yor1; transcription factors: pdr1, pdr2, pdr3, yap1, yrm1). […] Starting OD600 was 0.1, total volume per well 120 µl. Plates were incubated at 30°C with 770 RPM orbital shaking.\nStrain BYΔ8 was incubated in 2.5% ethylmethanesulfonate until only 50% of the cells formed colonies. […] Amplifying the mutated MEF1 gene and transforming it into non-mutagenized BYΔ8 cells validated identified mutations in MEF1."}}, "note": "*1 amine or outer side, *2 acyl side, *3 side chain or, on linkers, in order; H or OH if unused. Where a SMILES comes first, the peptide text is derived from it. [ ]: non-standard residue; d: D form. dAla(ψthiazole) = C[C@@H](N[*:1])c1nc(C(=O)[*:2])cs1; Trp(4-OMe) = COc1cccc2[nH]cc(C[C@H](N)C(=O)O)c12; dAbu = CC[C@@H](N)C(=O)O; Dha = C=C(N)C(=O)O; Sar = CNCC(=O)O", "data": [{"smiles": "C=C1NC(=O)CN(C)C(=O)CNC(=O)[C@H](Cc2c[nH]c3cccc(OC)c23)NC(=O)[C@H](Cc2c[nH]c3ccccc23)NC(=O)c2csc(n2)[C@@H](C)NC(=O)[C@@H](CC)NC1=O", "note": "[argyrin B] (cyclo([dAbu][dAla(ψthiazole)]W[Trp(4-OMe)]G[Sar][Dha]))", "values": [{"measurement": "Binding by SPR (in words)", "setting": "[1]", "value": "failed to bind argyrin B sufficiently to generate a Kd value"}, {"measurement": "Inhibition of the wild-type (MEF1wt) strain (in words)", "setting": "[2]", "value": "full inhibiton of the wild-type strain"}]}]}
